Results taken from publication PMC11274883, “Anticancer Effect of Pt^[sequence], Pt^II5MESS, Pt^II56MESS and Their Platinum(IV)-Dihydroxy Derivatives against Triple-Negative Breast Cancer and Cisplatin-Resistant Colorectal Cancer” (Cancers, 2024).

Tests used:
Type in all cases: cell-based
[1] = tested on: MDA−MB−231 spheroids; assay: 3D bioprinted spheroid cytotoxicity (WST-1); conditions: 72 h, mean ± SEM
Text: (§1) To evaluate the cytotoxic effect of platinum(II) and (IV) complexes in 3D cell culture, MDA−MB−231 or HT29 cells were used to bioprint networks or spheroids with the non-contact drop-on-demand 3D RASTRUM bioprinter (Inventia Life Science, Alexandria, NSW, Australia). The 3D cultures use two constituents: bioink and activator. Cell pellets (2 × 10^6 cells) were resuspended in an activator reagent which forms an instant gel after its addition to the bioink by the bioprinter. The 3D large plug cell model with polyethylene glycol bioinks formulated to mimic the properties of in vivo tissue were chosen as follows. Matrix Px02.31 (activator F177 and bioink F242 with RGD: Fibronectin) was used for MDA−MB−231 3D embedded networks, Px02.00 (activator F177 and bioink F119 without RGD additives, Table S1) was used for MDA−MB−231 spheroids and matrix #Px02.09 (activator F177 and bioink F236 with adhesion peptides including, RGD: Fibronectin, and GFOGER: collagen type I to recapitulate rich in vivo tissue extracellular environments) was used for HT29 spheroids (Inventia Life Science) (Table S1). Each cell line was printed at 10,000 cells/well and loaded with the bioink fluids into the selected printer cartridge. After the automated priming of all fluids into the printer nozzles, each cell line was individually printed on tissue culture plates (Nunc^TM MicroWell^TM 96-Well, Nunclon Delta-Treated, Flat-Bottom Microplate, ThermoFisher #167008), with RASTRUM creating the 3D Large Plug across the 96-well plate. Following completion of the print run, 200 μL DMEM culture medium was added to each well using multichannel pipettes. The plate was then incubated for 7 days (humidified incubator with 5% CO2 at 37 °C) for compact and homogenous spheroid formation before the cytotoxicity assay. When the spheroids developed, post-7-day incubation, media was removed and replaced with 100 µL DMEM. […] Cytotoxicity was then assessed using the WST-1 assay as previously described in Section 2.3.

[2] = tested on: HT29 spheroids; assay: 3D bioprinted spheroid cytotoxicity (WST-1); conditions: 72 h, mean ± SEM
Text: as §1

[3] = tested on: HT29 cells; assay: Cellular uptake of Pt by ICP-MS; conditions: for Intracellular Concentration: HT29, 3 µM; for Intracellular/extracellular ratio: HT29, extracellular 3 µM
Experimental: (§2) A final concentration of 10^6 cells/well of MDA−MB−231 and HT29 cells were seeded in 6-well plates and incubated overnight to adhere. The cells were then treated with a final concentration of 3 µM of either Pt^II or Pt^IV complexes. After 0, 0.5, 1, 3, 6, 12, 24 or 30 h, the medium was removed, and the cells were washed three times with cold PBS and allowed to dry. Then, 400 µL of 69% HNO3 (Baseline grade nitric acid with PPB level reported impurities, Seastar Chemicals, Sidney, BC, Canada) was added to each well for 90 min to ensure complete digestion. […] Iridium 193 (^193Ir) was mixed online and introduced into the ICP-MS to check uptake efficiency and matrix interference. All ICP-MS parameters are described in Table S2 and elaborated in Method S3. The results represent an average of three different experiments run in triplicate (±SEM) and expressed as nmol/10^6 cells or µM/cell. Quantification of the cellular uptake of Pt was based on external standards (Certified Standard from Sigma-Aldrich, VIC, Australia) containing Internal standard Ir.
(§3) Method S3. Cellular Uptake of Platinum(II) and (IV) complexes
(§4) A final concentration of 10^6 cells/well of MDA−MB−231 and HT29 cells were seeded in 6-well plates and incubated overnight to adhere. The cells were then treated with a final concentration of 3 µM of either PtII or PtIV complexes. After 0, 0.5, 1, 3, 6, 12, 24 or 30 h, the medium was removed, and the cells were washed three times with cold PBS and allowed to dry. Then, 400 µL of 69% HNO3 (Baseline grade nitric acid with Instrument Quality Grade Nitric acid with ppb level reported impurities, Seastar Chemicals, Sidney, Canada) was added to each well for 90 mins to ensure complete digestion. The digests were then moved to trace -metal free 15 mL centrifuge tubes […]
(§5) concentration of 3.5-4%. Iridium 193 (193Ir), selected as internal standard, has similar first ionisation potential and mass to Platinum 195 (195Pt). A concentration of 50 ppb 193Ir in 2% HNO3 solution was chosen for the Perkin Elmer NexION® Inductively Coupled Plasma Mass Spectrometer (ICP-MS) as it produced a steady state signal intensity of 600-800K counts per second. Mixing and injection of sample and internal standard solution was carried out using an ESI 7 port Valve system (Elemental Scientific, USA). A high-quality Solvent Flex 2 stop pump with 0.38 mm ID tubing was used in conjunction with the ICP-MS’s Peristaltic pump set at 20 […]
(§6) standard both, at 0.25 mL/min) being 0.5 mL/min. The ICP-MS was tuned to high sensitivity settings to facilitate detection of low Pt concentrations in samples. This was done by adjusting the nebuliser gas flow between […] to achieve maximum Indium 115 intensity whilst maintaining an acceptable average oxide and doubly charged ratio of 1.64-2.24% and 1.17-1.69% respectively. The analysis method was set to peak hopping mode with a dwell time of […] and 45 sweeps through the mass spectrum per sample read. […]
(§7) peak integration time of 4500 milliseconds and enabled the collection of numerous data points for peak integration thereby increasing accuracy. The ICP-MS was tuned daily, and its performance optimised to a set of suppliers recommended settings. Analysis was only carried out when optimal oxide and doubly charged ratios with high ionic sensitivity was achieved. All ICP-MS parameters are described in Table S2. The results represent an average of three different experiments run in triplicates (± SEM) and expressed as nmol/106 cells or µM/cell. Quantification of the cellular uptake of Pt was based on external standards (Certified Standard from Sigma-Aldrich NSW, Australia) containing Internal standard Ir. […]

[4] = tested on: MDA−MB−231 cells; assay: Cellular uptake of Pt by ICP-MS; conditions: for Intracellular Concentration: MDA−MB−231, 3 µM; for Intracellular/extracellular ratio: MDA−MB−231, extracellular 3 µM
Experimental: as §2, §3, §4, §5, §6, §7

SMILES	IC50 [1] [µM]	IC50 [2] [µM]	Intracellular Concentration ([3]; 0 h) [nmol/10^6 cells]	Intracellular Concentration ([3]; 0.5 h) [nmol/10^6 cells]	Intracellular Concentration ([3]; 1 h) [nmol/10^6 cells]	Intracellular Concentration ([3]; 3 h) [nmol/10^6 cells]	Intracellular Concentration ([3]; 6 h) [nmol/10^6 cells]	Intracellular Concentration ([3]; 12 h) [nmol/10^6 cells]	Intracellular Concentration ([3]; 24 h) [nmol/10^6 cells]	Intracellular Concentration ([3]; 30 h) [nmol/10^6 cells]	Intracellular Concentration ([4]; 0 h) [nmol/10^6 cells]	Intracellular Concentration ([4]; 0.5 h) [nmol/10^6 cells]	Intracellular Concentration ([4]; 1 h) [nmol/10^6 cells]	Intracellular Concentration ([4]; 3 h) [nmol/10^6 cells]	Intracellular Concentration ([4]; 6 h) [nmol/10^6 cells]	Intracellular Concentration ([4]; 12 h) [nmol/10^6 cells]	Intracellular Concentration ([4]; 24 h) [nmol/10^6 cells]	Intracellular Concentration ([4]; 30 h) [nmol/10^6 cells]	other results
N[C@H]1CCCC[C@@H]1N.O=[N+]([O-])[O-].O=[N+]([O-])[O-].[OH-].[OH-].[Pt+4].c1cnc2c(c1)ccc1cccnc12 [[Pt(1,10-phenanthroline)(1S,2S-diaminocyclohexane)(dihydroxy)](NO3)2]	13.5 ± 1.25	11.4 ± 1.31	0.10	0.10	0.18	0.33	0.77	3.64	5.18	5.79	0.13	0.13	0.223	0.16	0.25	0.63	0.78	1.29	Intracellular/extracellular ratio ([3]; 0 h): 16.45; Intracellular/extracellular ratio ([3]; 0.5 h): 15.93; Intracellular/extracellular ratio ([3]; 1 h): 28.08; Intracellular/extracellular ratio ([3]; 3 h): 51.34; Intracellular/extracellular ratio ([3]; 6 h): 121.19; Intracellular/extracellular ratio ([3]; 12 h): 571.26; Intracellular/extracellular ratio ([3]; 24 h): 813.09; Intracellular/extracellular ratio ([3]; 30 h): 909.81; Intracellular/extracellular ratio ([4]; 0 h): 21.21; Intracellular/extracellular ratio ([4]; 0.5 h): 20.07; Intracellular/extracellular ratio ([4]; 1 h): 35.47; Intracellular/extracellular ratio ([4]; 3 h): 26.14; Intracellular/extracellular ratio ([4]; 6 h): 38.82; Intracellular/extracellular ratio ([4]; 12 h): 98.56; Intracellular/extracellular ratio ([4]; 24 h): 123.87; Intracellular/extracellular ratio ([4]; 30 h): 203.38
N.N.[Cl][Pt][Cl] [Cisplatin, cisplatin]	48.5 ± 1.62	445 ± 5.09	0.36	0.94	0.14	0.28	0.10	0.57	1.02	0.71	0.56	0.15	0.14	0.12	0.18	0.19	0.24	1.29	
